# According to patent US11518750B2, “3-methylideneoxan-4-one compounds and substituted derivatives thereof as inhibitors of telomerase” (NORTHWESTERN UNIVERSITY, priority 2019, dated 2022):
# Target: T1, telomerase (MCF-7 cell lysates) (Homo sapiens, UniProt O14746)
# T1 construct: endogenous in cells; host or cells: MCF-7
# Assay: TRAP assay in cell lysates (PCR-based telomerase activity assay)
# Assay type: biochemical
# Conditions: IC50, Table 2, C-3 group; TRAP assay
# Text: In developing a preliminary structural activity relationship (SAR) for the chrologs, we divided the structure of the pyran into four main components: (1)C-2 substituents (carboxylic acid of chrolactomycin); (2) C-6 substituents (chrolactomycin macrolide loop); (3) C-3 substituents (fused γ-lactone of chrolactomycin) and (4) inclusion of the exocyclic methylene group. We carried out systematic modifications of each structural unit and evaluated the effects on telomerase activity as measured by a PCR-based telomerase activity assay (TRAP assay).^16
# Telomeric Repeat Amplification Protocol Assay. The telomeric repeat amplification protocol (TRAP) assay was performed using the TRAPeze RT Telomerase Detection Kit (EMD Millipore) and iTaq DNA polymerase (Bio-Rad) according to the manufacturer's protocol.
# Cell Lysate TRAP Analysis. MCF-7, HeLa, ACHN, MDA-MB231 and A549 cells were cultured in DMEM media supplemented with 10% Fetal Bovine Serum (FBS), 1% pen/strep and with 5% CO2 and 37° C. Cells were plated in 2×T75 flasks and cultured for 3 days. Flasks were rinsed twice with PBS and treated with 0.05% trypsin-EDTA (Thermo Fisher) to detach cells. […] Cell extracts were transferred to microcentrifuge tubes, 200 μl/tube, and centrifuged at 12,000×g for 20 min at 4° C. to remove cell debris. Stock solutions of compounds were made in DMSO with a concentration of 100 mM and a […] dilution was performed in DMSO in a 96-well plate to produce compound solutions of 100, 10, 1, 0.1, 0.01, and 0.001 mM (1000× of the final concentration). The 1000× stock solutions of the compound samples were transferred to a 96-well plate using the Echo 550 (Labcyte) and then diluted with the cell extracts to yield final compound concentrations of 100, 10, 1, 0.1, 0.01, and 0.001 μM. The plate was covered and shaken at room temperature for 30 min. For TRAPeze reactions, a “master mix” was prepared according to the TRAPeze protocol, containing 5 μl of the TRAPeze reaction mix; 0.4 μl Taq polymerase; 17.6 μl PCR grade, nuclease-free water. The master mix and treated cell extracts were transferred using the Mosquito Crystal Liquid Handling System (TTP Labtech) into separate wells in a white, 384-well RT-PCR plate. Each well contained 1.2 μl of the master mix and 1.2 μl of the treated cell extract to give a final volume of 2.4 μl, with two duplicates for each sample. The RT-PCR plate was then sealed and centrifuged for 5 min. A sample containing only CHAPS Lysis Buffer was included as negative control. The TSR8 standards were included to generate a standard curve. Samples were amplified in a CFW384 RT-PCR (BioRad) detection system with PCR parameters of 30 min at 30° C. for 1 cycle, 2 min at 95° C. for 1 cycle, and then 45 cycles of 15 s at 94° C., 60 s at 59° C., and 10 s at 45° C. Real-time fluorescent data was obtained during the 10 s at 45° C. step. The number of cycles at which the fluorescence level reached a threshold (Ct) was averaged between the duplicates for each sample. Using a calibration curve obtained from the TSR8 standards, a linear equation was obtained to convert the Ct values into arbitrary telomerase activity units, which were plotted as a function of compound concentration to construct dose-response curves and calculate IC50.
# T1 sequence (O14746 whole entry): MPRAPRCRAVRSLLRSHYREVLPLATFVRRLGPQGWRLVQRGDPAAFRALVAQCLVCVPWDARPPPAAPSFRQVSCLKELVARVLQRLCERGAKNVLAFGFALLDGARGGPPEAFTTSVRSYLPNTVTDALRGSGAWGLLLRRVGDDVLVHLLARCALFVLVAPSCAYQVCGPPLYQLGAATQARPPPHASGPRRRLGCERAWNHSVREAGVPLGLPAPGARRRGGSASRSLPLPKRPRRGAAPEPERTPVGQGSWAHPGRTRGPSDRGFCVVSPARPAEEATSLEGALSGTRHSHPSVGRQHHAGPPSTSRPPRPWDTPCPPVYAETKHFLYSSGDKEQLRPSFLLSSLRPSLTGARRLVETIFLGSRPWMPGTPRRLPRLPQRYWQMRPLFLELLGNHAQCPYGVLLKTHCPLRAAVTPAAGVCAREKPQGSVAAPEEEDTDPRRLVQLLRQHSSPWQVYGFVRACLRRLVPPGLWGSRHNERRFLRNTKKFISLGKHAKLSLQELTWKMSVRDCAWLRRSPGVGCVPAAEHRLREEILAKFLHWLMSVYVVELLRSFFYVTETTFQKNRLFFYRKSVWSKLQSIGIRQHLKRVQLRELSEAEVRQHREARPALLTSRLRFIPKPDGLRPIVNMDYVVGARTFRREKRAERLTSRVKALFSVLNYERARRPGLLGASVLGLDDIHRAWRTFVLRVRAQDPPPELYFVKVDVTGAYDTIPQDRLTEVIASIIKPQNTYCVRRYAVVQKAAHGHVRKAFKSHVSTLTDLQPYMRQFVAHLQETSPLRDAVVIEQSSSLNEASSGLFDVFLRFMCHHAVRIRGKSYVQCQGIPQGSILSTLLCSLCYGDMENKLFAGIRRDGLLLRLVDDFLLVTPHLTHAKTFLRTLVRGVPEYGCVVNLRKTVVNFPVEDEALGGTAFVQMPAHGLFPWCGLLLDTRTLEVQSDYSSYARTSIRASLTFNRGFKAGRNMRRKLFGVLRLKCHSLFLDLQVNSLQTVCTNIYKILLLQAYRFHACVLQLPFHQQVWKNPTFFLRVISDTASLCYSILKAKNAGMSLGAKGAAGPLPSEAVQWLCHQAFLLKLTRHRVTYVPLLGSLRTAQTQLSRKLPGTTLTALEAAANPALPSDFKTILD
# T1 sequence (O60832 whole entry partner): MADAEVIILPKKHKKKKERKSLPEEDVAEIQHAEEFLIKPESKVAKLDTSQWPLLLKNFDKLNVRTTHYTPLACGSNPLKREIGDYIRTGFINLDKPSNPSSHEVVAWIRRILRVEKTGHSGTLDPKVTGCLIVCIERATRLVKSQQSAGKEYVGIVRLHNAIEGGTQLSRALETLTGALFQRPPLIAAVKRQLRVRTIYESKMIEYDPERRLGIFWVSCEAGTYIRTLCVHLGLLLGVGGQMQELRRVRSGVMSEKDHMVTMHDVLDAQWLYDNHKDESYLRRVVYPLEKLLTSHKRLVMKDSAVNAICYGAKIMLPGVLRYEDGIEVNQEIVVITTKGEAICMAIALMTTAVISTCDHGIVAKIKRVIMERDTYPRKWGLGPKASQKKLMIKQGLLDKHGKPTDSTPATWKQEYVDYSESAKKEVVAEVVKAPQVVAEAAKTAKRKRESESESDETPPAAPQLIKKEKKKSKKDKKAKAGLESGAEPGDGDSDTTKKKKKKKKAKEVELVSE
# T1 sequence (Q9NPE3 whole entry partner): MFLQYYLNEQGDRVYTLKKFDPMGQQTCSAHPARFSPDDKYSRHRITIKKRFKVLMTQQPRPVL
# T1 sequence (Q9NX24 whole entry partner): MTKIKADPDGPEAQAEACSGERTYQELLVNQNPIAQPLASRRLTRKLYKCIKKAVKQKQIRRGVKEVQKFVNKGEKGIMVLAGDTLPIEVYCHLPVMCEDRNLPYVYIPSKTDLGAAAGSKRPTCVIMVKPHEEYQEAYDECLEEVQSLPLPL
# T1 sequence (Q9NY12 whole entry partner): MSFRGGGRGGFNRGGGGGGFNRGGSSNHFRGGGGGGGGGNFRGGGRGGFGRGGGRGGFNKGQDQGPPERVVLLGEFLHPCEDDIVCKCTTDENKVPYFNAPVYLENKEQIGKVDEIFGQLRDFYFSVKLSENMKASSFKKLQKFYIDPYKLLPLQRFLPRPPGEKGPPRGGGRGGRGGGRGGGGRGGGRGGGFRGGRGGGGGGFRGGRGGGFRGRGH
# T1 sequence (Q9BUR4 whole entry partner): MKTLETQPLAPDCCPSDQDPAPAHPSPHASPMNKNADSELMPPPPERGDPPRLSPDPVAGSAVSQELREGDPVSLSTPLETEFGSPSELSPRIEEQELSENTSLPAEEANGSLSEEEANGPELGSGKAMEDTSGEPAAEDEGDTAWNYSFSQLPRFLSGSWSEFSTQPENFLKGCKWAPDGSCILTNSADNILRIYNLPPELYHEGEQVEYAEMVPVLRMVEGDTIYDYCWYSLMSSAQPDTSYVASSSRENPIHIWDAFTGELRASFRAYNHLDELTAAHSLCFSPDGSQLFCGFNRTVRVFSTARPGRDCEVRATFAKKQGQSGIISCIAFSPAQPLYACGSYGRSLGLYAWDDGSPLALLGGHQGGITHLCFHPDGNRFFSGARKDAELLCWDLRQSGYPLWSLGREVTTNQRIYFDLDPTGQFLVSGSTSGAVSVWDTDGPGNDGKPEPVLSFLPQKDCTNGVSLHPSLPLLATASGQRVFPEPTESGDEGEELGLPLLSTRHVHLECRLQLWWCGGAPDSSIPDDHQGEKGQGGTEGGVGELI
row,SMILES,IC50 [µM]
1,"C=C1C(=O)[C@@](C)(C(=O)OCCCC)[C@@H](CCc2ccc(NC(C)=O)cc2)O[C@H]1C (racemic) [Compound 4n, (±) butyl (2S,3R,6R)-2-(4-acetamidophenethyl)-3,6-dimethyl-5-methylene-4-oxotetrahydro2H-pyran-3-carboxylate]",85

# Same assay, conditions: TRAP assay, MCF-7 cell lysates; read-out: IC50
row,IC50 [µM],SMILES
1,2.1,"C=C1C(=O)[C@]2(C)C(=O)O[C@@]34C[C@H](C)C(C(=O)O)=C[C@@H]3CCC[C@@H](C)C[C@@H](C)[C@H]1O[C@H]24 [okilactomycin, reference compound]"

# Same assay, conditions: Table 1, C-2 and C-6 groups; TRAP assay; read-out: IC50
row,IC50 [µM],SMILES
1,> 100,"C=C1C(=O)[C@](C)(C(=O)OC)[C@H](CC(C)C)O[C@@H]1C (racemic) [Compound 4c, (±) methyl (2S,3R,6R)-2-isobutyl-3,6-dimethyl-5-methylene-4-oxotetrahydro-2H-pyran-3 carboxylate]"
2,11,"C=C1C(=O)[C@@](C)(C(=O)OC)[C@@H](CCc2cccc(NC(C)=O)c2)O[C@H]1C (racemic) [Compound 4g, (±) methyl (2S,3R,6R)-2-(3-acetamidophenethyl)-3,6-dimethyl-5-methylene-4-oxotetrahydro2H-pyran-3-carboxylate]"
3,> 100,"C=C1C(=O)[C@@](C)(C(=O)OC)[C@@H](CCc2ccc(NC(C)=O)cc2)O[C@H]1CCc1ccccc1 (racemic) [Compound 4j, (±) methyl (2S,3R,6R)-2-(4-acetamidophenethyl)-3-methyl-5-methylene-4-oxo-6phenethyltetrahydro-2H-pyran-3-carboxylate]"
4,62,"C=C1C(=O)[C@](C)(C(=O)OC)C(CCc2ccc(OC)cc2)O[C@@H]1C (mixture of isomers) [Compound 4f, (±) methyl (2S,3R,6R)-2-(4-methoxyphenethyl)-3,6-dimethyl-5-methylene-4-oxotetrahydro2H-pyran-3-carboxylate]"
5,42,"C=C1C(=O)[C@](C)(C(=O)OC)[C@H](CCc2ccc(F)cc2)O[C@@H]1C (racemic) [Compound 4d, (±) methyl (2S,3R,6R)-2-(4-fluorophenethyl)-3,6-dimethyl-5-methylene-4-oxotetrahydro-2H pyran-3-carboxylate]"
6,> 100,"C=C1C(=O)[C@@](C)(C(=O)OC)[C@@H](CCc2cccc(F)c2)O[C@H]1C (racemic) [Compound 4h, (±) methyl (2S,3R,6R)-2-(3-fluorophenethyl)-3,6-dimethyl-5-methylene-4-oxotetrahydro-2H pyran-3-carboxylate]"
7,55,"C=C1C(=O)[C@@](C)(C(=O)OC)[C@@H](CCc2ccc(C(F)(F)F)cc2)O[C@H]1C (racemic) [Compound 4e, (±) methyl (2S,3R,6R)-3,6-dimethyl-5-methylene-4-oxo-2-(4(trifluoromethyl)phenethyl)tetrahydro-2H-pyran-3-carboxylate]"

# Same assay, conditions: Table 2, C-3 group; TRAP assay; read-out: IC50
row,IC50 [µM],SMILES
1,25,C=C1C(=O)[C@](C)(C(=O)OCCOC)[C@@H](CCc2ccc(NC(C)=O)cc2)O[C@H]1C [Compound 4p]
2,45,"C=C1C(=O)[C@@](C)(C(=O)OC(C)C)[C@@H](CCc2ccc(NC(C)=O)cc2)O[C@H]1C (racemic) [Compound 4k, (±) isopropyl (2S,3R,6R)-2-(4-acetamidophenethyl)-3,6-dimethyl-5-methylene-4oxotetrahydro-2H-pyran-3-carboxylate]"
3,62,"C=C1C(=O)[C@@](C(=O)OC)(C(C)C)[C@H](CCc2ccc(NC(C)=O)cc2)O[C@@H]1C (racemic) [Compound 4r, (±) methyl (2S,3R,6R)-2-(4-acetamidophenethyl)-3-isopropyl-6-methyl-5-methylene-4oxotetrahydro-2H-pyran-3-carboxylate]"
4,75,"C=C1C(=O)[C@@](C)(C(=O)OCC2CC2)[C@@H](CCc2ccc(NC(C)=O)cc2)O[C@H]1C (racemic) [Compound 4l, (±) cyclopropylmethyl (2S,3R,6R)-2-(4-acetamidophenethyl)-3,6-dimethyl-5-methylene-4oxotetrahydro-2H-pyran-3-carboxylate]"
